Marks after values point to notes of the source that are not given here.
Columns and labels:
[1] = test system: fattening pigs; test: Carcass composition/appearance of fattening pigs; format: in vivo, swine
Description: 72 piglets were divided evenly into control group and Cysteamine group. The control group was treated with basal diet while the Cysteamine group was treated with basal diet added with 150 g cysteamine hydrochloride per ton of feed. Upon reaching the market weight of 85-90 kg, five animals from each treatment were slaughtered after fasting for one day. During slaughter, the animals were stunned with a stunning gun, bled, dehaired and eviscerated. The carcass was split […] and then chilled for 24 hours prior to fabrication. The slaughter and the chilled carcass weights were recorded. The chilled carcass weight expressed as percentage of the slaughter weight represents the dressed yield. The wholesale and retail cuts of each animals were weighed and recorded. The values were expressed as the percentage of the live weight and of the chilled carcass weight.
The area of the longissimus dorsi (LD) muscle was measured on the 12th rib of the right part of the carcasses. This was done by tracing the outline of the whole LD muscle on acetate paper and the area was measured with the use of a grading method.

[2] = test system: D×L×M weanling piglets; test: Enhanced growth in swine: weanling piglets fed cysteamine hydrochloride; format: in vivo; conditions: 30 days; for ADG, Improvement (%): (text: 90 g per ton of feed), hydrochloride
Source text: Total of 100 heads of unhealthy D×L×M weanling piglets (approx. 6.78 kg) were divided into 2 groups—Control group (50 heads) & Cysteamine group (50 heads). The Control group was fed with basal diet. […]

[3] = test system: small-fat-tail sheep; test: Enhanced productivity in small-fat-tail sheep; format: in vivo; conditions: 35 days
Description: In the following example, the test animals were sheep (small-fat-tail sheep). The experiment was performed at the Goat Trial Farm of Beijing Shengshifumin Muslim Food Company during the thirty-five day period from Dec. 2, 2004 to Jan. 5, 2005. In total, 40 heads of small-fat-tail sheep with the average weight of 26.5 kg were randomly divided into Control group (20) and Cysteamine group (20). The control group was fed with basal diet only, while the Cysteamine group was fed a diet that included 900 g cysteamine HCl per tonnage of diet. The standard basal diet of the farm was employed for this trial.

[4] = test system: pig intestine villi; test: Intestine villi length and histology in pigs; format: in vivo, swine; conditions: 30 days
Description: 72 piglets were evenly divided into control group and Cysteamine group. The control group was treated with basal diet only, while the Cysteamine group was added with 150 g of cysteamine hydrochloride per ton of feed. The trial was lasted for 30 days.
Immediately after evisceration, tissue samples from the small intestine, large intestine, liver, and pancreas of pigs from each treatment group were collected. The collected samples were placed in properly labeled containers containing 10% buffered neutral formalin solution. The tissue samples were fixed for 78 hours before they were processed for routine histological examination using the paraffin embedding technique (well-known to the skilled artisan).
Sections approximately 5 to 6 μ thick were cut from paraffin blocked tissues using Optical 820 Rotary Microtome (Scientific Instruments Division, Buffalo, N.Y.). Some sections were stained with hematoxylin and eosin (H & E), others with Alcian blue. H & E stained sections were used for the examination of the general histology of the intestinal tract while the Alcian blue stained sections were used for goblet cells identification. The stained sections were examined under various magnifications using a light microscope.
The number and length (μm) of villi in the small intestine were counted per microscopic field; the thickness of the tunica muscularis in the small and large intestine were measured using American Optical Micrometer (American Optical Company, Buffalo, N.Y.) calibrated in millimeters. The mucosal folds in the large intestine, the density of intestinal glands (crypts), the appearance of the surface epithelium were all observed. The general histology of the liver and pancreas were examined and compared between Cysteamine treated and non-Cysteamine treated groups. Goblet cell density in the Cysteamine treated and non-Cysteamine treated pigs was compared through visual examination using light microscope.

[5] = test system: pregnant pig sow; test: Enhanced productivity in swine: pregnant sows fed cysteamine hydrochloride; format: in vivo, swine (D×L×M hybrid swine); parameters: Live piglet born rate, Improvement / Live piglet born rate, Improvement (%) / Birth weight per litter, Improvement: dose or concentration left out as unconfirmed; conditions: for Birth weight per litter, Improvement (%) / Birth weight per piglet, Improvement (%) / Body weight of weaned piglet, Improvement (%): hydrochloride
Source text: A total of 14 heads of pregnant pig sow (which were the offspring of Duroc×Landrace×Meishan swine, also referred to herein as D×L×M hybrid swine) (84 days of pregnant) were divided into 2 groups: Control group (6) and Cysteamine group (8). The Control group was fed with basal diet. […]

[6] = test system: Ximenta'er hybridizing beef cattle; test: Enhanced productivity in beef cattle; format: in vivo
Description: In the following example, the test animals were beef cattle (Ximenta'er hybridizing beef cattle). The experiment was performed at the Hebei Hengshui Geling Beef Cattle Raising Farm dur the period from Oct. 10 to Dec. 21, 2002. In total, 64 heads of around 350 kg Ximenta'er hybridizing beef cattle were selected and separated into 4 groups randomly according to the principle of equalizing age, weight, grace, fur/hair condition, etc. Each group had 16 heads of beef cattle. The Control Group, Test Group I, II & III were fed a composition comprising 0, 1.5, 3, 6 g/head/day of cysteamine HCl, respectively. As noted in Tables 8, 9, and 10 below, adding a cysteamine compound to the basal diet of beef cattle can increase daily weight gain.

[7] = test system: crossbreed sheep; test: Enhanced productivity in crossbreed sheep; format: in vivo; conditions: 35 days
[8] = 150 g per ton of feed, slaughter at 85-90 kg
[9] = vs control, 90 g cysteamine hydrochloride per ton of feed
[10] = feed consumption, 20 head, 900 g/tonnage
[11] = in words, 900 g cysteamine HCl per tonnage of diet
[12] = relative to control, 900 g/tonnage
[13] = in words, 150 g per ton of feed
[14] = late phase pregnant sow, (text: 150 g per ton feed)
[15] = relative to control, (text: 150 g per ton feed)
[16] = relative to control, Dosage (text: 150 g per ton feed)
[17] = Test III, 6 g/head/day, p<0.05 vs Control

## Cl.NCCS [Cysteamine HCl, cysteamine hydrochloride]
[1]; 150 g cysteamine hydrochloride per ton of feed, slaughter at 85-90 kg, five animals
  Dressing %: 69.012%
[1]; [8]
  Lean:Fat Ratio: 0.105
  Loin Eye Area: 4.850 sq.cm
[1]; 150 g per ton of feed, slaughter at 85-90 kg, P < 0.05 vs Non-Cysteamine HCl
  Backfat Thickness: 1.91^a cm
[1]; in words
  backfat vs pigs fed diet without cysteamine hydrochloride: significantly thinner
  differences in dressing percentage, loin eye area, and lean:fat ratio vs diet without cysteamine hydrochloride: no significant differences
  loin cut and lean trimmings as a percent of the live-weight vs diets without cysteamine hydrochloride: significantly higher
[2]; 50 head
  Total feed consumption: 1076.1 kg
  Total final weight: 973 kg
  Total weight gain: 633 kg
[2]
  Daily feed consumption: 717.4 g/head
  Weight gain: 12.66 kg/head
[2]; average daily weight gain
  ADG: 422 g/head
[2]; difference vs control, 50 head
  Total feed consumption, Improvement: +66.3 kg
  Total final weight, Improvement: +75 kg
  Total weight gain, Improvement: +72.5 kg
[2]; difference vs control
  ADG, Improvement: +48 g/head
  Daily feed consumption, Improvement: +44.2 g/head
  FCR, Improvement: −0.1
  Final Wt., Improvement: +1.5 kg/head
  Weight gain, Improvement: +1.45 kg/head
[2]; feed conversion rate
  FCR: 1.70
[2]; of 50 head
  Diarrhea: 21 head
[2]; relative to control
  Diarrhea, Improvement (%): −43.24%
  FCR, Improvement (%): −5.56%
[2]; relative to control, listed as Cysteamine
  ADG, Improvement (%): 12.83%
[2]; relative to control, listed as cysteamine hydrochloride
  ADG, Improvement (%): 12.83%
[2]; [9]
  decrease in feed conversion rate (FCR): 5.56%
  improvement in diarrhea condition: 43.24%
[2]; weanling piglets, Treatment (text: 90 g cysteamine hydrochloride per ton of feed)
  Final Wt.: 19.46 kg/head
[3]; 20 head, 900 g/tonnage
  Total feed consumption: 1019.38 kg
[3]; Dosage 900 g/tonnage
  Final weight: 28.92 kg/head
  Weight gain: 3.350 kg/head
  daily weight gain: 95.71 g/head/day
[3]; [10]
  Concentrate: 245 kg
  Hay: 350.00 kg
  Silage: 424.38 kg
[3]; [11]
  ADG vs control: statistically significant increase
[3]; [12]
  Daily weight gain, Improvement (%): 30.9%
  Silage, Improvement (%): −16.22%
  Weight gain, Improvement (%): 30.9%
[4]; 150 g of cysteamine hydrochloride per ton of feed, same letter as Non-Cysteamine (p>0.05), unit only in method b111
  Villi Length, Small Intestines: 2.15 ± 0.09^A μm
[4]; [13]
  goblet cells in the small and large intestine vs non-Cysteamine-treated: noticeably larger and highly distended
  length of small intestinal villi vs non-Cysteamine treated: longer
  number of small intestinal villi vs non-Cysteamine treated: more numerous
[5]; difference vs control
  Birth weight per litter, Improvement: 2.50 kg
  Birth weight per piglet, Improvement: 0.23 kg/head
  Live piglet born rate, Improvement: 0.00%
[5]; difference vs control, weaning age 19 days
  Body weight of weaned piglet, Improvement: 0.46 kg/head
[5]; late phase pregnant sow, 8 sows, Dosage (text: 150 g cysteamine hydrochloride per ton feed), from 84 days of pregnant to weaning
  Total piglet born: 82 head
[5]; late phase pregnant sow, 8 sows, Dosage (text: 150 g per ton feed)
  Total live piglet born: 82 head
[5]; [14]
  Birth weight per litter: 21.32 kg
  Birth weight per piglet: 2.08 kg/head
  Live piglet born per litter: 10.29 head
  Live piglet born rate: 100.00%
[5]; late phase pregnant sow, Dosage (text: 150 g per ton feed), from 84 days of pregnant to weaning
  Piglet born per litter: 10.29 head
[5]; relative to control
  Live piglet born rate, Improvement (%): 0.00%
[5]; [15]
  Birth weight per litter, Improvement (%): 13.28%
  Birth weight per piglet, Improvement (%): 12.43%
[5]; [16]
  Birth weight per litter, Improvement (%): 13.28%
  Birth weight per piglet, Improvement (%): 12.43%
[5]; relative to control, weaning age 19 days, listed as Cysteamine
  Body weight of weaned piglet, Improvement (%): 8.00%
[5]; relative to control, weaning age 19 days, listed as cysteamine hydrochloride
  Body weight of weaned piglet, Improvement (%): 8.00%
[5]; weaning age 19 days, Dosage (text: 150 g per ton feed)
  Body weight of weaned piglet: 6.21 kg/head
[6]; Test Group III, 6 g/head/day, p<0.05 vs Control, Test Group I & II
  daily weight gain: 1.217 kg
[6]; Test I, 1.5 g/head/day
  Feed Conversion Rate (FCR), Concentrated feed: 3.54
  Feed Conversion Rate (FCR), Corn Silage: 14.14
  Feed Conversion Rate (FCR), Raw Grass: 1.21
  Final Wt.: 423.8 kg
[6]; Test II, 3 g/head/day
  Feed Conversion Rate (FCR), Concentrated feed: 3.70^a
  Feed Conversion Rate (FCR), Corn Silage: 14.42^a
  Feed Conversion Rate (FCR), Raw Grass: 1.27^a
  Final Wt.: 420.5 kg
[6]; Test III, 6 g/head/day
  Feed Conversion Rate (FCR), Raw Grass: 1.06^a
  Final Wt.: 432.7 kg
[6]; [17]
  Feed Conversion Rate (FCR), Concentrated feed: 3.09^b
  Feed Conversion Rate (FCR), Corn Silage: 12.87^b
[7]; 20 head, 900 g/tonnage
  Total feed consumption: 1001.2 kg
[7]; Dosage 900 g/tonnage
  ADG: 82.29 g/head/day
  Final weight: 29.59 kg/head
  Weight gain: 2.88 kg/head
[7]; [10]
  Concentrate: 245 kg
  Hay: 350.0 kg
  Silage: 406.2 kg
[7]; [11]
  ADG vs control: statistically significant increase
[7]; [12]
  ADG, Improvement (%): 46.2%
  Silage, Improvement (%): −5.14%
  Weight gain, Improvement (%): 46.2%
